This is an account of results in US6689754B1, “Heterocyclic glycyl β-alanine derivatives” (G. D. Searle & Co., priority 1998, dated 2004).

Test [1] concerns the target T1, Human fibrinogen receptor IIb/IIIa (Homo sapiens, UniProt P05106+P08514).
T1 construct: Human fibrinogen receptor ([…]) was purified from outdated platelets; from tissue; host or cells: outdated human platelets
The test is described as follows: Purified IIb/IIIa receptor assay: solid phase receptor assay, competition with biotinylated vitronectin. As to conditions: 1 nM biotinylated vitronectin. Format: binding. The text has this:
Purified IIb/IIIa Receptor Assay
Human fibrinogen receptor ([…]) was purified from outdated platelets. (Pytela, R., Pierschbacher, M. D., Argraves, S., Suzuki, S., and Rouslahti, E. “Arginine-Glycine-Aspartic acid adhesion receptors”, Methods in Enzymology 144(1987):475-489.) Human vitronectin was purified from fresh frozen plasma as described in Yatohgo, T., Izumi, M., Kashiwagi, H., and Hayashi, M., “Novel purification of vitronectin from human plasma by heparin affinity chromatography,” Cell Structure and Function 13(1988):281-292. Biotinylated human vitronectin was prepared by coupling NHS-biotin from Pierce Chemical Company (Rockford, Ill.) to purified vitronectin as previously described. (Charo, I. F., Nannizzi, L., Phillips, D. R., Hsu, M. A., Scarborough, R. M., “Inhibition of fibrinogen binding to GP IIb/IIIa by a GP IIIa peptide”, J. Biol. Chem. 266(3)(1991): 1415-1421.) Assay buffer, OPD substrate tablets, and RIA grade BSA were obtained from Sigma (St. Louis, Mo.). Anti-biotin antibody was obtained from Calbiochem (La Jolla, Calif.). Linbro microtiter plates were obtained from Flow Labs (McLean, Vs.). ADP reagent was obtained from Sigma (St. Louis, Mo.).
This assay is essentially the same reported in Niiya, K., Hodson, E., Bader, R., Byers-Ward, V. Koziol, J. A., Plow, E. F. and Ruggeri, Z. M., “Increased surface expression of the membrane glycoprotein IIb/IIIa complex induced by platelet activation: Relationships to the binding of fibrinogen and platelet aggregation”, Blood 70(1987):475-483. The purified human fibrinogen receptor ([…]) was diluted from stock solutions to 1.0 μg/mL in Tris-buffered saline containing 1.0 mM Ca^++, Mg^++, and Mn^++, pH 7.4 (TBS^+++). The diluted receptor was immediately transferred to Linbro microtiter plates at 100 μL/well (100 ng receptor/well). The plates were sealed and incubated overnight at 4° C. to allow the receptor to bind to the wells. All remaining Steps were at room temperature. The assay plates were emptied and 200 μL of 1% RIA grade BSA in TBS^+++ (TBS^+++/BSA) were added to block exposed plastic surfaces. Following a 2 hour incubation, the assay plates were washed with TBS^+++ using a 96 well plate washer. Logarithmic serial dilution of the test compound and controls were made starting at a stock concentration of 2 mM and using 2 nM biotinylated vitronectin in TBS^+++/BSA as the diluent. This premixing of labeled ligand with test (or control) ligand, and subsequent transfer of 50 μL aliquots to the assay plate was carried out with a CETUS Propette robot; the final concentration of the labeled ligand was 1 nM and the highest concentration of test compound was 1.0×10^−4 M. The competition occurred for two hours after which all wells were washed with a plate washer as before. Affinity purified horseradish peroxidase labeled goat anti-biotin antibody was diluted 1:3000 in TBS^+++/BSA and 125 μL were added to each well. After 30 minutes, the plates were washed and incubated with […] substrate in 100 mM/L citrate buffer, pH 5.0. The plate was read with a microtiter plate reader at a wavelength of 450 nm and when the maximum-binding control wells reached an absorbance of about 1.0, the final A450 were recorded for analysis. The data were analyzed using a macro written for use with the EXCELJ spreadsheet program. The mean, standard deviation, and % CV were determined for duplicate concentrations. The mean A450 values were normalized to the mean of four maximum-binding controls (no competitor added)(B-MAX). The normalized values were subjected to a four parameter curve fit algorithm, [Robard et al., Int. Atomic Energy Agency.

Test [2] addresses T2, Human vitronectin receptor (αvβ3) (Homo sapiens, UniProt P05106+P06756).
T2 construct: Human vitronectin receptor (αvβ3) was purified from human placenta; from tissue; host or cells: human placenta
The test is described as follows: Vitronectin adhesion assay: solid phase receptor assay, competition with biotinylated vitronectin. Format: binding. As to conditions: purified human vitronectin receptor; 1 nM biotinylated vitronectin. The protocol: Vitronectin Adhesion Assay
Human vitronectin receptor (αvβ3) was purified from human placenta as previously described [Pytela et al., Methods in Enzymology, 144:475-489 (1987)]. Human vitronectin was purified from fresh frozen plasma as previously described [Yatohgo et al., Cell Structure and Function, 13:281-292 (1988)]. Biotinylated human vitronectin was prepared by coupling NHS-biotin from Pierce Chemical Company (Rockford, Ill.) to purified vitronectin as previously described [Charo et al., J. Biol. Chem., 266(3):1415-1421 (1991)]. Assay buffer, OPD substrate tablets, and RIA grade BSA were obtained from Sigma (St. Louis, Mo.). Anti-biotin antibody was obtained from Calbiochem (La Jolla, Calif.). Linbro microtiter plates were obtained from Flow Labs (McLean, Va.). ADP reagent was obtained from Sigma (St. Louis, Mo.).
This assay was essentially the same as previously reported [Niiya et al., Blood, 70:475-483 (1987)]. The purified human vitronectin receptor (αvβ3) was diluted from stock solutions to 1.0 μg/mL in Tris-buffered saline containing 1.0 mM Ca^++, Mg^++, and Mn^++, pH 7.4 (TBS^+++). The diluted receptor was immediately transferred to Linbro microtiter plates at 100 μL/well (100 ng receptor/well). The plates were sealed and incubated overnight at 4° C. to allow the receptor to bind to the wells. All remaining steps were at room temperature. The assay plates were emptied and 200 μL of 1% RIA grade BSA in TBS^+++ (TBS^+++/BSA) were added to block exposed plastic surfaces. Following a 2 hour incubation, the assay plates were washed with TBS^+++ using a 96 well plate washer. Logarithmic serial dilution of the test compound and controls were made starting at a stock concentration of 2 mM and using 2 nM biotinylated vitronectin in TBS^+++/BSA as the diluent. This premixing of labeled ligand with test (or control) ligand, and subsequent transfer of 50 μL aliquots to the assay plate was carried out with a CETUS Propette robot; the final concentration of the labeled ligand was 1 nM and the highest concentration of test compound was 1.0×10^−4 M. The competition occurred for two hours after which all wells were washed with a plate washer as before. Affinity purified horseradish peroxidase labeled goat anti-biotin antibody was diluted 1:3000 in TBS^+++/BSA and 125 μL were added to each well. After 30 minutes, the plates were washed and incubated with OPD/H2O2 substrate in 100 mM/L Citrate buffer, pH 5.0. The plate was read with a microtiter plate reader at a wavelength of 450 nm and when the maximum-binding control wells reached an absorbance of about 1.0, the final A450 were recorded for analysis. The data were analyzed using a macro written for use with the EXCELJ spreadsheet program. The mean, standard deviation, and % CV were determined for duplicate concentrations. The mean A450 values were normalized to the mean of four maximum-binding controls (no competitor added)(B-MAX). The normalized values were subjected to a four parameter curve fit algorithm [Rodbard et al., Int.

The structures appear in SMILES notation. Structures can show the parent of a compound that is named as a salt.

With `COc1cc(NC2=NCC(O)CN2)nc(C(=O)NCC(=O)N[C@@H](CC(=O)O)c2cc(Cl)cc(Br)c2O)c1` (stereo partly shown) [Example 30], the IC50 in test [1] came to 0.0295 µM; in test [2] it was 0.155 µM.
For the compound `COCCN/C(N)=N/c1cc(C(=O)NCC(=O)N[C@@H](CC(=O)O)c2cc(Cl)cc(Cl)c2O)c[nH]c1=O` [Example 46], the half-inhibitory concentration (IC50) in test [1] was determined as 2.69 µM; in test [2], 0.00197 µM.
For `O=C(O)C[C@@H](NC(=O)CNC(=O)c1c[nH]c(=O)c(NC2=NCCN2)c1)c1cc(Cl)cc(Cl)c1O` [Example 48] the same measures were 27.9 µM and 0.0043 µM.
For `O=C(O)CC(NC(=O)CNC(=O)c1cncc(NC2=NCC(O)CN2)c1)c1cc(Cl)cc(Br)c1O` (stereo not shown) [Example 32] the same measures were 0.049 µM and 0.0021 µM.
For `O=C(O)C[C@H](NC(=O)CNC(=O)c1csc(NC2=NCC(O)CN2)c1)c1cc(Cl)cc(Cl)c1O` (stereo partly shown) [Example 37] the same measures were 0.267 µM and 0.0638 µM.
`Cc1sc(C(=O)NCC(=O)N[C@@H](CC(=O)O)c2cc(Cl)cc(Cl)c2O)cc1NC1=NCCN1` [Example 15, (3S)-N-[[4-(4,5,-dihydro-1H-imidazol-2-yl)amino]-5-methyl-2-thienyl]carbonyl]glycyl-3-(3,5-dichloro-2-hydroxyphenyl)-β-alanine, trifluoroacetate salt]: the IC50 in test [1] was 1.04 µM; in test [2] it was 0.0254 µM.
For `Cn1cc(C(=O)NCC(=O)NC(CC(=O)O)c2cc(Cl)cc(Cl)c2O)cc(NC2=NCCN2)c1=O` (stereo not drawn) [Example 18, N-[[5-(4,5,-dihydro-1H-imidazol-2-yl)amino]-1,6-dihydro-1-methyl-6-oxo-3-pyridinyl]carbonyl]glycyl-3-(3,5-dichloro-2-hydroxyphenyl-β-alanine, (trifluoroacetate) salt] the same measures were 0.798 µM and 0.00043 µM.
For `O=C(O)C[C@H](NC(=O)CNC(=O)c1cc(NC2=NCC(O)CN2)[nH]c(=O)c1)c1cc(Cl)cc(Cl)c1O` (stereo partly shown) [Example 42] the same measures were 5.95 µM and 0.0031 µM.
For `O=C(O)CC(NC(=O)CNC(=O)c1cc(N=C2NCCN2)c[nH]c1=O)c1cc(Cl)cc(Cl)c1O` (stereo not drawn) [Example 23, N-[[5-(4,5,-dihydro-1H-imidazol-2-yl)amino]-1,2-dihydro-2-oxo-3-pyridinyl]-carbonyl]glycyl-3-(3,5-dichloro-2-hydroxyphenyl)-β-alanine, (trifluoroacetate) salt] the same measures were 10.1 µM and 3.6 µM.
Take `Cn1nc(C(=O)NCC(=O)NC(CC(=O)O)c2cc(Cl)cc(Cl)c2O)cc1NC1=NCCN1` (stereo not drawn) [Example 24, N-[[(4,5-dihydro-1H-imidazol-2-yl)amino]-1-methyl-1H-pyrazol-3yl]carbonyl]glycyl-3-(3,5-dichloro-2-hydroxyphenyl)-β-alanine, (trifluoroacetate) salt]: the IC50 in test [1] is 15.8 µM; in test [2] it was 91.2 µM.
On to `COc1ncc(C(=O)NCC(=O)N[C@@H](CC(=O)O)c2cc(Cl)cc(Cl)c2O)cc1NC1=NCC(O)CN1` (stereo partly shown) [Example 27], for which the IC50 stood at 0.482 µM in test [1] and 0.00026 µM in test [2].
